Experimental data as given in a compilation of properties of binary mixtures (doi:10.1021/je970101l).

Assay: excess molar enthalpy (molar enthalpy of mixing); xn = mol fraction of the nth substance listed
Details: 298.15 K, 100 kPa

C=COC(C)=O + COC(=O)OC
Details | excess molar enthalpy [kcal/mol]
x2 = 0.0437 | -0.001
x2 = 0.0838 | -0.00268
x2 = 0.1207 | -0.0039
x2 = 0.1546 | -0.00507
x2 = 0.2153 | -0.00722
x2 = 0.2679 | -0.00872
x2 = 0.3544 | -0.0104
x2 = 0.4226 | -0.0111
x2 = 0.5233 | -0.0111
x2 = 0.6222 | -0.0103
x2 = 0.8145 | -0.00571
x2 = 0.8682 | -0.00361
x2 = 0.8978 | -0.00253
x2 = 0.9294 | -0.00143
x2 = 0.9634 | -0.000645

CCCCCCOC(C)=O + COC(=O)OC
Details | excess molar enthalpy [kcal/mol]
x2 = 0.0755 | 0.0206
x2 = 0.1404 | 0.0382
x2 = 0.2462 | 0.0688
x2 = 0.3289 | 0.0899
x2 = 0.3951 | 0.104
x2 = 0.4949 | 0.116
x2 = 0.5665 | 0.12
x2 = 0.7462 | 0.101
x2 = 0.7967 | 0.0903
x2 = 0.8546 | 0.0698
x2 = 0.9216 | 0.0406
x2 = 0.94 | 0.0304
x2 = 0.9522 | 0.0261

CCCCCOC(C)=O + COC(=O)OC
Details | excess molar enthalpy [kcal/mol]
x2 = 0.0684 | 0.0139
x2 = 0.128 | 0.0272
x2 = 0.1804 | 0.0392
x2 = 0.2269 | 0.0502
x2 = 0.3057 | 0.0669
x2 = 0.3699 | 0.0808
x2 = 0.54 | 0.0954
x2 = 0.6378 | 0.093
x2 = 0.7254 | 0.0815
x2 = 0.7789 | 0.0722
x2 = 0.8409 | 0.0571
x2 = 0.8757 | 0.0476
x2 = 0.9337 | 0.0263
x2 = 0.9548 | 0.0179
x2 = 0.9769 | 0.00908

CCCCOC(C)=O + COC(=O)OC
Details | excess molar enthalpy [kcal/mol]
x2 = 0.0612 | 0.0117
x2 = 0.1153 | 0.022
x2 = 0.1636 | 0.0313
x2 = 0.2068 | 0.0397
x2 = 0.2812 | 0.0509
x2 = 0.3428 | 0.0586
x2 = 0.4389 | 0.0667
x2 = 0.5105 | 0.0688
x2 = 0.7578 | 0.0554
x2 = 0.8112 | 0.0454
x2 = 0.8622 | 0.0361
x2 = 0.9037 | 0.0263
x2 = 0.926 | 0.0203
x2 = 0.9494 | 0.0143
x2 = 0.9741 | 0.00765

CCCOC(C)=O + COC(=O)OC
Details | excess molar enthalpy [kcal/mol]
x2 = 0.0538 | 0.00789
x2 = 0.1021 | 0.0143
x2 = 0.1457 | 0.0196
x2 = 0.1853 | 0.0249
x2 = 0.2544 | 0.0311
x2 = 0.3127 | 0.0361
x2 = 0.4056 | 0.0413
x2 = 0.4764 | 0.0437
x2 = 0.5771 | 0.044
x2 = 0.6718 | 0.0409
x2 = 0.8912 | 0.0174
x2 = 0.9161 | 0.0134

CCOC(C)=O + COC(=O)OC
Details | excess molar enthalpy [kcal/mol]
x2 = 0.0426 | 0.00177
x2 = 0.0883 | 0.00289
x2 = 0.1269 | 0.00413
x2 = 0.1623 | 0.00504
x2 = 0.2252 | 0.00626
x2 = 0.3677 | 0.00832
x2 = 0.5376 | 0.00975
x2 = 0.6356 | 0.00956
x2 = 0.7772 | 0.00755
x2 = 0.823 | 0.00667
x2 = 0.9029 | 0.00406
x2 = 0.9331 | 0.00284
x2 = 0.9654 | 0.00146

COC(C)=O + COC(=O)OC
Details | excess molar enthalpy [kcal/mol]
x2 = 0.0729 | -0.000191
x2 = 0.1055 | -0.000574
x2 = 0.1359 | -0.0011
x2 = 0.2393 | -0.00237
x2 = 0.3206 | -0.00289
x2 = 0.3862 | -0.00313
x2 = 0.586 | -0.00232
x2 = 0.739 | -0.00098
x2 = 0.7906 | -0.000669
x2 = 0.8499 | -9.56e-05
x2 = 0.883 | 0.000167
x2 = 0.9189 | 0.000454
x2 = 0.9577 | 0.000215
